Results published in ChEMBL document CHEMBL1201862, “PubChem BioAssay data set” (2004).
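Cultured in 96-well plates, cells were exposed to test compound for 48 hours across five concentrations. The concentration for 50% growth inhibition is given as GI50.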 The source made the active and inactive calls. Cut-off read from the data, not from the text of the source: active = GI50 up to about 1.1 µM and inactive = higher.

What was measured:
Assay in all cases: NCI anticancer screen, dose series, 48 h
786-0 = test system: 786-0
A498 = test system: A498
A549 = test system: A549
ACHN = test system: ACHN
BT-549 = test system: BT-549
CAKI-1 = test system: CAKI-1
CCRF-CEM = test system: CCRF-CEM
COLO 205 = test system: COLO 205
DU-145 = test system: DU-145
EKVX = test system: EKVX
HCC 2998 = test system: HCC 2998
HCT-116 = test system: HCT-116
HCT-15 = test system: HCT-15
HOP-62 = test system: HOP-62
HOP-92 = test system: HOP-92
HT-29 = test system: HT-29
Hs-578T = test system: Hs-578T
IGROV-1 = test system: IGROV-1
K562 = test system: K562
KM12 = test system: KM12
LOX IMVI = test system: LOX IMVI
M14 = test system: M14
MCF7 = test system: MCF7
MDA-MB-231 = test system: MDA-MB-231
MDA-MB-435 = test system: MDA-MB-435
MDA-N = test system: MDA-N
Malme-3M = test system: Malme-3M
NCI-H226 = test system: NCI-H226
NCI-H23 = test system: NCI-H23
NCI-H460 = test system: NCI-H460
NCI-H522 = test system: NCI-H522
NCI/ADR-RES = test system: NCI/ADR-RES
OVCAR-3 = test system: OVCAR-3
OVCAR-4 = test system: OVCAR-4
OVCAR-5 = test system: OVCAR-5
OVCAR-8 = test system: OVCAR-8
PC-3 = test system: PC-3
RPMI-8226 = test system: RPMI-8226
RXF 393 = test system: RXF 393
SF-268 = test system: SF-268
SF-295 = test system: SF-295
SF-539 = test system: SF-539
SK-MEL-28 = test system: SK-MEL-28
SK-MEL-2 = test system: SK-MEL-2
SK-MEL-5 = test system: SK-MEL-5
SK-OV-3 = test system: SK-OV-3
SN12C = test system: SN12C
SNB-19 = test system: SNB-19
SNB-75 = test system: SNB-75
SW-620 = test system: SW-620
TK-10 = test system: TK-10
U-251 = test system: U-251
UACC-257 = test system: UACC-257
UACC-62 = test system: UACC-62
UO-31 = test system: UO-31
HL-60 = test system: HL-60
MOLT-4 = test system: MOLT-4
SR = test system: SR
T47D = test system: T47D

Measured: GI50

c1ccc(NN=C(c2ccccn2)c2ccccn2)nc1
0.0893 µM: HCT-15
active: 786-0 0.142 µM | A498 0.447 µM | A549 0.384 µM | ACHN 0.159 µM | CAKI-1 0.0757 µM | CCRF-CEM 0.0224 µM | COLO 205 < 0.01 µM | DU-145 0.331 µM | EKVX 0.335 µM | HCT-116 0.0785 µM | HOP-62 0.346 µM | HOP-92 0.488 µM | HT-29 < 0.01 µM | IGROV-1 0.0153 µM | K562 0.463 µM | KM12 0.552 µM | LOX IMVI 0.269 µM | M14 0.152 µM | MCF7 < 0.0245 µM | MDA-MB-231 0.389 µM | MDA-MB-435 0.817 µM | MDA-N 0.533 µM | Malme-3M 0.0653 µM | NCI-H226 0.285 µM | NCI-H23 0.0408 µM | NCI-H460 0.153 µM | NCI-H522 < 0.01 µM | NCI/ADR-RES 0.157 µM | OVCAR-3 < 0.0217 µM | OVCAR-4 0.213 µM | OVCAR-5 0.794 µM | OVCAR-8 0.0384 µM | PC-3 0.191 µM | RPMI-8226 0.211 µM | RXF 393 0.583 µM | SF-268 0.388 µM | SF-295 0.423 µM | SK-MEL-28 0.869 µM | SK-MEL-2 0.49 µM | SK-MEL-5 0.0893 µM | SK-OV-3 0.369 µM | SN12C 0.142 µM | SNB-19 0.598 µM | SW-620 0.141 µM | TK-10 0.357 µM | U-251 0.318 µM | UACC-257 0.187 µM | UACC-62 0.153 µM | UO-31 0.0267 µM
inactive: BT-549 6.18 µM | HCC 2998 2.23 µM | Hs-578T 4.82 µM | SF-539 1.71 µM | SNB-75 2.56 µM

CCOC1NC(=O)Oc2ccccc21 (stereo not given)
> 100 µM: HCT-15
inactive: 786-0 > 100 µM | A498 > 100 µM | A549 > 100 µM | ACHN > 100 µM | BT-549 > 100 µM | CAKI-1 > 100 µM | CCRF-CEM > 100 µM | COLO 205 > 100 µM | DU-145 > 100 µM | EKVX > 100 µM | HCC 2998 > 100 µM | HCT-116 > 100 µM | HL-60 > 100 µM | HOP-62 > 100 µM | HOP-92 > 100 µM | HT-29 > 100 µM | Hs-578T > 100 µM | IGROV-1 > 100 µM | K562 > 100 µM | KM12 > 100 µM | LOX IMVI > 100 µM | M14 > 100 µM | MCF7 > 100 µM | MDA-MB-231 > 100 µM | MDA-MB-435 > 100 µM | MDA-N > 100 µM | MOLT-4 > 100 µM | Malme-3M > 100 µM | NCI-H226 > 100 µM | NCI-H23 > 100 µM | NCI-H460 > 100 µM | NCI-H522 > 100 µM | NCI/ADR-RES > 100 µM | OVCAR-3 68.2 µM | OVCAR-4 > 100 µM | OVCAR-5 > 100 µM | OVCAR-8 > 100 µM | PC-3 > 100 µM | RXF 393 > 100 µM | SF-268 > 100 µM | SF-295 > 100 µM | SF-539 > 100 µM | SK-MEL-28 > 100 µM | SK-MEL-2 > 100 µM | SK-MEL-5 > 100 µM | SK-OV-3 > 100 µM | SN12C > 100 µM | SNB-19 > 100 µM | SNB-75 > 100 µM | SR > 100 µM | SW-620 > 100 µM | TK-10 > 100 µM | U-251 > 100 µM | UACC-257 > 100 µM | UACC-62 > 100 µM | UO-31 > 100 µM

CCOc1cc2c(cc1O)C(N)C[C@@H]1[C@@H]2CC[C@]2(C)[C@@H](O)CC[C@@H]12 (stereo not given in full)
inactive: 786-0 40.3 µM | A498 34.8 µM | ACHN 34.8 µM | BT-549 40.9 µM | CAKI-1 32.9 µM | CCRF-CEM 22.6 µM | COLO 205 52.7 µM | EKVX 80.9 µM | HCC 2998 36.7 µM | HL-60 18.6 µM | HOP-62 46.7 µM | HOP-92 25.6 µM | HT-29 42.7 µM | Hs-578T 54.7 µM | IGROV-1 52.6 µM | K562 18.8 µM | KM12 43.7 µM | LOX IMVI 34.2 µM | M14 26.9 µM | MCF7 40.8 µM | MDA-MB-231 83.9 µM | MDA-N 23.4 µM | MOLT-4 33.3 µM | NCI-H226 92.7 µM | NCI-H23 49.5 µM | NCI-H460 37.6 µM | NCI-H522 33.5 µM | NCI/ADR-RES > 100 µM | OVCAR-4 30.8 µM | OVCAR-5 > 100 µM | OVCAR-8 83.2 µM | PC-3 34.4 µM | RXF 393 56.5 µM | SF-268 61.7 µM | SF-295 32.7 µM | SF-539 > 10 µM | SK-MEL-28 42.8 µM | SK-MEL-2 41.1 µM | SK-MEL-5 30.2 µM | SNB-19 46.7 µM | SNB-75 15 µM | SR 15.2 µM | SW-620 34 µM | T47D 84.1 µM | TK-10 83 µM | U-251 37.9 µM | UACC-257 38.6 µM | UO-31 36.9 µM
45.7 µM: HCT-15

N=c1c2ccccc2nc2oc3cc([N+](=O)[O-])ccc3n12
inactive: 786-0 24.7 µM | A549 40.1 µM | ACHN 23.7 µM | BT-549 20.2 µM | CAKI-1 25.4 µM | CCRF-CEM > 100 µM | COLO 205 > 100 µM | EKVX 2.21 µM | HCC 2998 > 100 µM | HCT-116 25.6 µM | HOP-62 18.1 µM | HT-29 > 100 µM | Hs-578T 4.23 µM | IGROV-1 27.4 µM | K562 > 100 µM | KM12 > 100 µM | LOX IMVI 21 µM | M14 > 100 µM | MCF7 > 100 µM | MDA-MB-231 25.1 µM | MDA-MB-435 > 100 µM | MDA-N > 100 µM | MOLT-4 > 100 µM | Malme-3M 25.9 µM | NCI-H226 15 µM | NCI-H23 16.6 µM | NCI-H460 36.9 µM | NCI-H522 32.2 µM | NCI/ADR-RES 18.6 µM | OVCAR-3 25.7 µM | OVCAR-4 21.3 µM | OVCAR-5 28.2 µM | OVCAR-8 20.9 µM | PC-3 54.2 µM | RPMI-8226 > 100 µM | RXF 393 7.38 µM | SF-268 27.4 µM | SF-295 19.3 µM | SF-539 22.3 µM | SK-MEL-28 74 µM | SK-MEL-2 94.2 µM | SK-MEL-5 71.6 µM | SK-OV-3 17.9 µM | SN12C 35.6 µM | SNB-19 24.9 µM | SNB-75 5.61 µM | SR > 100 µM | SW-620 61.1 µM | TK-10 19.6 µM | U-251 15.5 µM | UACC-257 > 100 µM | UACC-62 47.3 µM | UO-31 16.6 µM
> 100 µM: HCT-15
active: T47D < 0.01 µM

CC1=C[C@@H](C)C[C@]2(C)CC[C@H](O2)[C@]23CC[C@](C)(C[C@H](O2)[C@@H]2O[C@@](C)(CC2=O)[C@@H](O)[C@H]2CC[C@@]4(CCC[C@@H](O4)[C@H](C)C(=O)O[C@H]4C[C@H]([C@]5(O)OCC[C@H](C)[C@@H]5O)O[C@H]4C=C1)O2)O3
0.00796 µM: HCT-15
active: 786-0 0.0027 µM | A498 0.00147 µM | A549 0.0035 µM | ACHN 0.00473 µM | BT-549 0.0024 µM | CAKI-1 < 0.001 µM | CCRF-CEM 0.00188 µM | COLO 205 0.00127 µM | DU-145 0.0601 µM | EKVX 0.0113 µM | HCC 2998 0.075 µM | HCT-116 0.00826 µM | HL-60 0.0346 µM | HOP-62 0.0015 µM | HOP-92 0.00159 µM | HT-29 0.00226 µM | Hs-578T 0.00115 µM | IGROV-1 0.00339 µM | K562 0.00692 µM | KM12 0.0586 µM | LOX IMVI < 0.001 µM | M14 0.00527 µM | MDA-MB-231 0.00528 µM | MDA-MB-435 0.0371 µM | MDA-N 0.0233 µM | Malme-3M 0.00165 µM | NCI-H226 0.00157 µM | NCI-H23 0.0118 µM | NCI-H460 0.00429 µM | NCI-H522 0.0134 µM | NCI/ADR-RES 0.897 µM | OVCAR-3 0.00397 µM | OVCAR-4 0.00344 µM | OVCAR-5 0.0186 µM | PC-3 0.00229 µM | RXF 393 0.00146 µM | SF-268 0.002 µM | SF-295 0.00113 µM | SF-539 0.00185 µM | SK-MEL-28 0.00173 µM | SK-MEL-2 0.383 µM | SK-MEL-5 0.00148 µM | SK-OV-3 0.00757 µM | SNB-19 0.0244 µM | SNB-75 < 0.001 µM | SR 0.00157 µM | SW-620 0.0684 µM | T47D 0.0632 µM | TK-10 0.00545 µM | U-251 0.0146 µM | UACC-257 0.0148 µM | UACC-62 0.00461 µM | UO-31 0.00408 µM
